Here are results for two compounds from ChEMBL document CHEMBL4118135, “Optimized allosteric inhibition of engineered protein tyrosine phosphatases with an expanded palette of biarsenical small molecules” (Bioorg Med Chem, 2018).

Residue numbers refer to the chain shown, from its start. Active and inactive are the calls of the source. The rule behind the calls is not given here.

Assay [1] has as its target T1, Tyrosine-protein phosphatase non-receptor type 1 (Homo sapiens) (UniProt P18031).
T1 sequence (whole entry): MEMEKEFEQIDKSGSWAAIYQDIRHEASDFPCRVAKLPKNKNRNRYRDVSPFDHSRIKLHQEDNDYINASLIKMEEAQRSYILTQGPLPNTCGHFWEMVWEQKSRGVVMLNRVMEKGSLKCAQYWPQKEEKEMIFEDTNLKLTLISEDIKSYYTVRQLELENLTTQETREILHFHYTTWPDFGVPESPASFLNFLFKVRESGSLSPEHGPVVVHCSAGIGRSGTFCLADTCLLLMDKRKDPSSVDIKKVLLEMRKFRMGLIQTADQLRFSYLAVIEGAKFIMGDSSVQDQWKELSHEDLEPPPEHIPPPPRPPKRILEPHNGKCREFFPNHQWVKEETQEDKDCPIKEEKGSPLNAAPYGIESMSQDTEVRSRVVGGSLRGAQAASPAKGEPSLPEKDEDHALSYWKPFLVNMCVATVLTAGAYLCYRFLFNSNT
Briefly: Inhibition of His6-tagged human wild-type PTP1B catalytic domain at 2000 nM using pNPP as substrate incubated for 90 mins by quenched phosphatase activity assay.

Assay [2] concerns T2, Tyrosine-protein phosphatase non-receptor type 1 (Homo sapiens), P18031 [P87C,A122C].
T2 sequence (whole entry): T1 sequence (whole entry) with P87C, A122C
Nature of the assay: Inhibition of allosterically sensitized His6-tagged human PTP1B catalytic domain P87C/A122C mutant at 2000 nM using pNPP as substrate incubated for 10 to 40 mins by quenched phosphatase activity assay. The note with it: TDE = time-dependent effect.

In assay [3] the target is T1, Tyrosine-protein phosphatase non-receptor type 1 (Homo sapiens). Nature of the assay: Inhibition of His6-tagged human wild-type PTP1B catalytic domain overexpressed in Escherichia coli crude cell lysate using pNPP as substrate incubated for 90 mins by quenched phosphatase activity assay.
For assay [4] the target is unchanged. Briefly: Inhibition of His6-tagged human wild-type PTP1B catalytic domain overexpressed in Escherichia coli BL21(DE3) cells at 100 uM using pNPP as substrate incubated for 90 mins by quenched phosphatase activity assay.
In assay [5] the test system is T2, Tyrosine-protein phosphatase non-receptor type 1 (Homo sapiens), P18031 [P87C,A122C]. Nature of the assay: Inhibition of allosterically sensitized His6-tagged human PTP1B catalytic domain P87C/A122C mutant overexpressed in Escherichia coli BL21(DE3) cells using pNPP as substrate incubated for 90 mins by quenched phosphatase activity assay.
Assay [6] addresses T1, Tyrosine-protein phosphatase non-receptor type 1 (Homo sapiens). Briefly: Binding affinity to His6-tagged human wild-type PTP1B catalytic domain overexpressed in Escherichia coli crude cell lysate at 6.66 uM incubated for 90 mins by SDS-PAGE and LC-MS/MS method.
For assay [7], the system named is T2, Tyrosine-protein phosphatase non-receptor type 1 (Homo sapiens), P18031 [P87C,A122C]. Nature of the assay: Binding affinity to allosterically sensitized His6-tagged human PTP1B catalytic domain P87C/A122C mutant overexpressed in Escherichia coli crude cell lysate incubated for 90 mins by SDS-PAGE and LC-MS/MS method.
For assay [8] the test system is unchanged. Nature of the assay: Binding affinity to allosterically sensitized His6-tagged human PTP1B catalytic domain P87C/A122C mutant overexpressed in Escherichia coli BL21(DE3) cells at 25 to 100 uM after 90 mins by SDS-PAGE and LC-MS/MS method.
Assay [9] deals with Tyrosine-protein phosphatase non-receptor type 6 (Homo sapiens) (UniProt P29350). Nature of the assay: Inhibition of allosterically sensitized mutant form of His6-tagged human SHP1 catalytic domain using pNPP as substrate after 120 mins by quenched phosphatase activity assay.
For assay [10], the target named is T3, Tyrosine-protein phosphatase non-receptor type 7 (Homo sapiens) (UniProt P35236).
T3 sequence (whole entry): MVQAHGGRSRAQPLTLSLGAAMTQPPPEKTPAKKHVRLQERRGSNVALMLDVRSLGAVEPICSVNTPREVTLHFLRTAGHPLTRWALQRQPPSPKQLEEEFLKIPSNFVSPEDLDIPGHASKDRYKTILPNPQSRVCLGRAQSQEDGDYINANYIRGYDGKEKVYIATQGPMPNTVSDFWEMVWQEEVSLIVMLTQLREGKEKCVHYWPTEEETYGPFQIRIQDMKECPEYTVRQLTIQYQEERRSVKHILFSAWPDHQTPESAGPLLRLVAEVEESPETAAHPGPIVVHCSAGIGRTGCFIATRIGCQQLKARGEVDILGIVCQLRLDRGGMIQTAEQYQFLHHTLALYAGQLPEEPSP
Briefly: Inhibition of His6-tagged human wild-type HePTP catalytic domain at 1 uM using pNPP as substrate incubated for 90 mins by quenched phosphatase activity assay.

Assay [11] has as its system T4, Tyrosine-protein phosphatase non-receptor type 7 (Homo sapiens), P35236 [P171C,V205C].
T4 sequence (whole entry): T3 sequence (whole entry) with P171C, V205C
Nature of the assay: Inhibition of allosterically sensitized mutant form of His6-tagged human HePTP catalytic domain at 1 uM using pNPP as substrate measured up to 10 mins by quenched phosphatase activity assay.

The test system is the same in assay [12]. Nature of the assay: Inhibition of allosterically sensitized mutant form of His6-tagged human HePTP catalytic domain overexpressed in Escherichia coli BL21(DE3) cells using pNPP as substrate incubated for 90 mins by quenched phosphatase activity assay.
Assay [13] deals with Tyrosine-protein phosphatase non-receptor type 13 (Homo sapiens) (UniProt Q12923). Nature of the assay: Inhibition of allosterically sensitized mutant form of His6-tagged human FAP1 catalytic domain using pNPP as substrate after 90 mins by quenched phosphatase activity assay.
Assay [14] deals with Tyrosine-protein phosphatase non-receptor type 7 (Homo sapiens), P35236 [UNDEFINED MUTATION]. Nature of the assay: Inhibition of allosterically sensitized mutant form of His6-tagged human wild-type HePTP catalytic domain at 1.92 uM using pNPP as substrate incubated for 90 mins by quenched phosphatase activity assay.
For assay [15], the system named is T4, Tyrosine-protein phosphatase non-receptor type 7 (Homo sapiens), P35236 [P171C,V205C]. Briefly: Inhibition of allosterically sensitized mutant form of His6-tagged human HePTP at 1000 nM using pNPP as substrate measured at 5 mins by quenched phosphatase activity assay.

Chain of Tyrosine-protein phosphatase non-receptor type 6 (Homo sapiens) (P29350 whole entry, the tested form may be a part): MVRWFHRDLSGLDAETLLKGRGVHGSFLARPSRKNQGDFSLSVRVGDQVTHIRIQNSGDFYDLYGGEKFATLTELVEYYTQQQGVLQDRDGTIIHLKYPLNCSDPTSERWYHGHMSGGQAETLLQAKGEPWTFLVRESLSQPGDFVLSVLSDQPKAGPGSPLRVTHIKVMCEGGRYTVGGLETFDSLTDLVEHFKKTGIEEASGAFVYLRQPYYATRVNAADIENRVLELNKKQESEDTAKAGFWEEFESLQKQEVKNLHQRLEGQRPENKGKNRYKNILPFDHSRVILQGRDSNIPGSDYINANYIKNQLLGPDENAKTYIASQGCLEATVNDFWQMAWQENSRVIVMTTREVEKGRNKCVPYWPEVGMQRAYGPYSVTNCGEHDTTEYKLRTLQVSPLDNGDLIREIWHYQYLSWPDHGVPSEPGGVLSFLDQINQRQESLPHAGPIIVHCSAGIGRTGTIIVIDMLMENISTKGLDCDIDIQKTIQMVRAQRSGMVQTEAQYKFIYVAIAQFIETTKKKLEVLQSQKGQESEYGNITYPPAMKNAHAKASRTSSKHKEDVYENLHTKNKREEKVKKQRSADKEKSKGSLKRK
Chain of Tyrosine-protein phosphatase non-receptor type 13 (Homo sapiens) (Q12923 whole entry, the tested form may be a part): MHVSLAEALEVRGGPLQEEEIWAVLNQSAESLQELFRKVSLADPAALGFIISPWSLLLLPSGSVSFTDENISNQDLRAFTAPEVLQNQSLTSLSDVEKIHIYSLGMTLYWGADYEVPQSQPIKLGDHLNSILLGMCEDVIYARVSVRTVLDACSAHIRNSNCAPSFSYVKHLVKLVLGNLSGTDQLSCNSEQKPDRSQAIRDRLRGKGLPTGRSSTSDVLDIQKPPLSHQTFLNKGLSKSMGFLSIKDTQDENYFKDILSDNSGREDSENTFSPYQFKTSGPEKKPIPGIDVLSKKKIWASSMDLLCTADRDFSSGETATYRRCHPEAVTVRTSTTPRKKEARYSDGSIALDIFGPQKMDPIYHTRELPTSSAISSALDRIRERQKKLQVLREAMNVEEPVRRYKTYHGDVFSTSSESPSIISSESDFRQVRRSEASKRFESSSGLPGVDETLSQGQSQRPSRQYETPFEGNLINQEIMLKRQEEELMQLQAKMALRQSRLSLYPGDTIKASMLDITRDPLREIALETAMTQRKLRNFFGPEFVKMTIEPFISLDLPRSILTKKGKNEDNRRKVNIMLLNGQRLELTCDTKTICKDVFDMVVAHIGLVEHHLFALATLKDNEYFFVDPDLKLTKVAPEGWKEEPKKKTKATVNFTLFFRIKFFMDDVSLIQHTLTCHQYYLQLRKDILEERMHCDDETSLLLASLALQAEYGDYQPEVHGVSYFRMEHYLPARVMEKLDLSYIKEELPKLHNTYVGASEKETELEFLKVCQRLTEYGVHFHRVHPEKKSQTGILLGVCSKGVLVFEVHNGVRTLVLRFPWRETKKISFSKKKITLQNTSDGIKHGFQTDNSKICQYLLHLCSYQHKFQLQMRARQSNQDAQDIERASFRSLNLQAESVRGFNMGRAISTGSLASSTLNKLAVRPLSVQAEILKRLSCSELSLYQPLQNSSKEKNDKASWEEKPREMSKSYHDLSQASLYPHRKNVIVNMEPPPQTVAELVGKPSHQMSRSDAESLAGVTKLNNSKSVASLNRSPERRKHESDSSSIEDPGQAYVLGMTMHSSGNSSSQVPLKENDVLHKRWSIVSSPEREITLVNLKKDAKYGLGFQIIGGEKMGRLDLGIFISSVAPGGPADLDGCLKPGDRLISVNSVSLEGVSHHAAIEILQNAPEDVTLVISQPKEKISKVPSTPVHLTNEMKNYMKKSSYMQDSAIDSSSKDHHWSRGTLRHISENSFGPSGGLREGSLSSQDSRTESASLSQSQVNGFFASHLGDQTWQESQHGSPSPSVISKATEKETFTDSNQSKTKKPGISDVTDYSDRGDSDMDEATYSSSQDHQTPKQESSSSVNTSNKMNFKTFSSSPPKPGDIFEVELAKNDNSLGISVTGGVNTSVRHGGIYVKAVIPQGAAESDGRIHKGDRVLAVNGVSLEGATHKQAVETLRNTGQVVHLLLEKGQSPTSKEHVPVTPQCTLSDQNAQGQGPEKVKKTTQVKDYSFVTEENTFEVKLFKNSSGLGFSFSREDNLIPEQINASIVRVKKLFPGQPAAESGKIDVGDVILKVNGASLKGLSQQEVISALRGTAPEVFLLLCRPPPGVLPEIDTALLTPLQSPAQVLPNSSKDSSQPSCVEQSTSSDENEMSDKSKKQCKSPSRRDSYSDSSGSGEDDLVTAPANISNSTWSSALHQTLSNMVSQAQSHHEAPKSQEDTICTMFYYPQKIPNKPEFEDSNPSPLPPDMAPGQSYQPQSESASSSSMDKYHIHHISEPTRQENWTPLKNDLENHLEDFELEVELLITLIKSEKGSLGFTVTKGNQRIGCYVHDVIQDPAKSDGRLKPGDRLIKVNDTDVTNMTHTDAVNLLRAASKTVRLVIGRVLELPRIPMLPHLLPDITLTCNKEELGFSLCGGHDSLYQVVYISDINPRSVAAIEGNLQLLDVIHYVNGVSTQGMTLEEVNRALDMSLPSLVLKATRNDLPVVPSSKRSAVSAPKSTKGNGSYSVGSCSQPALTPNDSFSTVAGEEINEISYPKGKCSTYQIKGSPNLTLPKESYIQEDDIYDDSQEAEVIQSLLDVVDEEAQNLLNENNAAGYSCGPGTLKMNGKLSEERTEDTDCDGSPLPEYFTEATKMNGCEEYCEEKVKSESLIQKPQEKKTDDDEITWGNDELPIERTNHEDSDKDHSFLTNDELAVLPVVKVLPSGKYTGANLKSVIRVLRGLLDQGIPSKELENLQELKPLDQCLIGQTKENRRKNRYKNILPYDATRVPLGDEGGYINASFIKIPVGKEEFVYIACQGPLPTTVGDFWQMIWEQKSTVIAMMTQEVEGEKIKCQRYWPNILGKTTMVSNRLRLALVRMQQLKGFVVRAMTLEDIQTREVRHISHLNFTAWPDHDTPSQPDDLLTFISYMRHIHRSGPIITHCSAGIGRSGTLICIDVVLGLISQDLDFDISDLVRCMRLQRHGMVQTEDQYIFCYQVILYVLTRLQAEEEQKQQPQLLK

For orientation: inhibition means the drop in the measured response relative to a control, in per cent. Regarding `CC1(C)C(/C=C/C=C2/N(CCCCS(=O)(=O)O)c3ccc([As]4SCCS4)cc3C2(C)C)=[N+](CCCCS(=O)(=O)O)c2ccc([As]3SCCS3)cc21`, the inhibition entry in [1], in [3] and in assay [4] was “inactive” in each case. In addition, the inhibition result in [2] was “Tde”; in assay [5], “Dose-dependent effect”; in [9] it was “Dose-dependent effect”. The result in assay [6] was inactive. Moreover, in assay [7], the Activity entry is “Dose-dependent effect”. Moreover, the outcome in assay [8] was Active.

`O=C(O)c1ccccc1-c1c2ccc(=O)c([As]3SCCS3)c-2oc2c([As]3SCCS3)c(O)ccc12`: in assay [10], the inhibition entry is “inactive”. In addition, the inhibition in assay [11] is 50%; in assay [12] it was “Dose-dependent effect”; in assay [13], “Dose-dependent effect”; in assay [14] it was 50%; in assay [15], 70%.
